These results are taken from publication PMC7594877, “Multidirectional in vitro and in cellulo studies as a tool for identification of multi-target-directed ligands aiming at symptoms and causes of Alzheimer’s disease” (Journal of Enzyme Inhibition and Medicinal Chemistry, 2020).

For series [1], the target named is T1, tau (Homo sapiens, UniProt P10636).
T1 construct: expressed in transfected cells; host or cells: E. coli BL21 (DE3) with pTARA (T7 RNA polymerase under pBAD) and pRKT42
Also noted: method as in di Pietro et al. 38. Particulars: at 10 µM; ref di Pietro et al. 38; cited from earlier work.

Series [2] addresses T2, Aβ42 (Homo sapiens, UniProt P05067).
T2 construct: expressed in transfected cells; host or cells: E. coli BL21 (DE3) with pET28a-Aβ42, IPTG-induced
Also noted: method as in di Pietro et al. 38. Particulars: at 10 µM; ref di Pietro et al. 38; cited from earlier work.

The subject of another series is eqBuChE. Particulars: read-out: eqBuChE IC50; cited from earlier work.
For another series, the system named is HepG2 cells. Nature of the series: Cytotoxicity, MTS cell viability assay, HepG2. The series is classed as cell-based, human. Particulars: 24 h, read-out: LC50 (cell viability, MTS). How it is done:
(§1) The human liver carcinoma HepG2 cell line was purchased from American Type Culture Collection (LGC Standards, UK). The human neuroblastoma SH-SY5Y cell line was purchased from American Type Culture Collection (CRL-2266, Manassas, VA). The cells were grown in Advanced Dulbecco’s modified Eagle’s medium (Sigma, St. Louis, MO) supplemented with 10% foetal bovine serum (FBS) (HyClone, Logan, UT), 2 mM L-glutamine, 50 U/mL penicillin and 50 μg/mL streptomycin (Sigma, St. Louis, MO) in a humidified atmosphere of 95% air and 5% CO2 at 37 °C, and grown to 80% confluence. Compound 3 was prepared as a stock solution of 20 mM in DMSO and was used at concentrations of 1–100 µM in case of HepG2 treatment, and at concentrations of 0.25–5 µM in case of SH-SY5Y treatment.
(§2) HepG2 and SH-SY5Y cells were seeded in 96-well plates (2 × 10^4/well) and assessed by MTS ([3–(4,5-dimethylthiazol-2-yl)-5–(3-carboxymethoxyphenyl)-2–(4-sulfophenyl)-2H-tetrazolium, inner salt) assay for their response to compound 3. Cells were treated as described above, and cell viability was assessed after 24 h using the CellTiter 96® Aqueous One Solution Cell Proliferation Assay (Promega, Madison, WI), following the manufacturer’s instructions. Absorbance was measured with an automatic microplate reader (Tecan Safire, Switzerland) at a wavelength of 492 nm.

For series [3], the target named is T1, tau. Put plainly: In cellulo tau aggregation inhibition, Thioflavin S fluorescence in E. coli overexpressing tau. The series is classed as cell-based, Escherichia coli. The following applies: at 10 µM; mean of three experiments ± SEM. From the text:
(§3) We screened multifunctional ligands from our in-house library for their anti-aggregating activity against Aβ and tau in the whole bacterial cells using the Thioflavin S (ThS) fluorescence assay. Bacterial cells overexpressing different proteins provide simple models that can be easily employed to monitor the mechanisms of protein aggregation related to a variety of conformational diseases[36]^,[37]. In our assay, E. coli system has been implemented to study the effect of potential Aβ42 and tau aggregation inhibitors within intact cells. The advantage of the test over in vitro tests is the fact that it considers the complexity of the cellular environment that plays a crucial role in tuning protein aggregation. This assay has been validated and successfully applied to assess the anti-aggregating properties of diverse chemical structures. Previously investigated tetrahydrobenzo[h][1,6] naphthyridine-6-chlorotacrine hybrid DP-128 was used as a reference compound[38]^,[39].
(§4) The assays were conducted according to the procedure described previously. All general chemicals were purchased from Sigma-Aldrich (St. Louis, MO) . Reagents for bacterial media were purchased from Conda (Sevilla, Spain). M9 minimal medium for 100 mL: 10 mL of salts 10× (0.68 g of Na2HPO4, 0.30 g of KH2PO4, 0.05 g of NaCl, 0.10 g of NH4Cl), 0.2 mL of 1 M MgSO4, 0.2 mL of 50 mM CaCl2, 2.5 mL of 20% glucose, and 87.1 mL of H2O.
(§5) E. coli competent cells BL21 (DE3) were transformed with the pET28a vector (Novagen, Inc., Madison, WI) carrying the DNA sequence of Aβ42 or with pTARA containing the RNA polymerase gene of T7 phage (T7RP) under the control of the promoter pBAD, then with pRKT42 vector encoding four repeats of tau protein in two inserts. For overnight culture preparation, 10 ml of M9 minimal medium containing 50 μg/mL of kanamycin (Aβ42) or 50 μg/mL of ampicillin and 12.5 μg/mL of chloramphenicol (tau) were inoculated with a colony of BL21 (DE3) bearing the plasmid Aβ42 or tau plasmids to be expressed at 37 °C and 180 rpm using an incubator shaker (Ovan, Barcelona, Spain). After overnight growth, the OD600 was usually 2 − 2.5. For expression of Aβ42 peptide/tau protein, 200 μL of overnight culture were transferred into Eppendorf tubes of 1.5 mL containing 790 μL of fresh M9 minimal medium with 50 μg/mL of kanamycin1 mM of isopropyl 1-thio-β-D-galactopyranoside (IPTG) (Aβ42) or 50 μg/mL of ampicillin, 12.5 μg/mL of chloramphenicol, 0.25% of arabinose (tau), and 25 μM of ThS and 10 μL of reference, tested compounds (1 mM in DMSO, final concentration: 10 μM) or DMSO. The samples were grown for 24 h at 37 °C and 180 rpm using an incubator shaker (Ovan). The samples with DMSO were prepared as a negative control (maximum level of Aβ42/tau, 0% of inhibition). In the positive controls, the M9 medium without IPTG (minimal level of Aβ42) or arabinose (minimal level of tau) was used. For absorbance and fluorescence determination, 200 μL of each Eppendorf tube was transferred in triplicate into 96-well plate. Finally, the fluorescence emission at 520 nm, when exciting at 440 nm and absorbance at 600 nm was recorded using the multi-mode microplate reader (Beckman Counter, Brea, CA). The absorbance at 600 nm (OD600) of these samples was assessed to check the bacterial growth and potential intrinsic toxicity of the tested compounds. Final data are the average of three independent experiments. DP-128 was used as a reference compound[38].

The subject of a further series is hAChE. The following applies: read-out: hAChE IC50; cited from earlier work.
The target of a further series is T3, human BACE1 (Homo sapiens, UniProt P56817).
T3 construct: purchased Panvera, Madison, WI (BACE1 FRET Assay Kit); host or cells: baculovirus-expressed
Nature of the series: In vitro inhibition of human BACE1, FRET assay. The format is biochemical. Particulars: mean of three experiments ± SEM; read-out: hBACE1 IC50. How it is done:
To further explore the multifunctional profile of the ligands, we screened them for their inhibitory activity against human BACE1 using spectrofluorometric assay (fluorescence resonance energy transfer (FRET)-based). […] Therefore, BACE1 inhibitors are now being tested in earlier stages of AD and in asymptomatic subjects at risk of AD, with the hope of blocking the disease process before it becomes irreversible.
BACE1 FRET Assay Kit (Panvera, Madison, WI) was performed according to the manufacturer’s protocol with small modifications. The Kit includes purified baculovirus-expressed BACE1 and specific peptide substrate (Rh-[…]-quencher), based on the “Swedish” mutant of APP. The analysis was carried, using 384-well black microplates and a microplate reader (EnSpire Multimode; PerkinElmer, Waltham, MA). The wavelength was optimised for the 553 nm excitation and 576 nm emission. Stock solutions of all test compounds were prepared in DMSO and further diluted with assay buffer (50 mM sodium acetate; pH 4.5). In the first step, 10 μL of BACE1 substrate was mixed with 10 μL of test compound (or assay buffer; i.e. blank sample), then 10 μL of the enzyme (1 U/mL) was added to start the reaction. After 60 min of incubation at 25 °C, 10 μL of stop solution (2.5 M sodium acetate) was applied to stop the reaction. The fluorescence signal was read at 576 nm. Percent of inhibition was calculated from [1 − (S60 − S0)/(C60 − C0)] × 100, where S0 and S60 are fluorescence intensities of the test sample (enzyme, substrate, test compound) at the beginning of the reaction and after 60 min, respectively, while C0 and C60 are analogical fluorescence intensities of the blank sample (enzyme, substrate, buffer). […] Each compound was analysed in triplicate. Commercially available BACE1 Inhibitor IV (Calbiochem, Merck; Nottingham, UK) was used as the reference compound. The IC50 values were calculated using nonlinear regression (GraphPad Prism 5 [GraphPad Software, San Diego, CA, 5.00]) by plotting the residual enzyme activities against the applied inhibitor concentration.

The target in series [4] is T2, Aβ42. Nature of the series: In cellulo Aβ42 aggregation inhibition, Thioflavin S fluorescence in E. coli overexpressing Aβ42. The format is cell-based, Escherichia coli. Particulars: at 10 µM; mean of three experiments ± SEM.
Text: as §3, §4, §5

A further series has as its system SH-SY5Y cells. Nature of the series: Cytotoxicity, MTS cell viability assay, SH-SY5Y. The series is classed as cell-based, human. The following applies: 24 h, read-out: LC50 (cell viability, MTS). Here is the method: as §1, §2
Background: Tetrazolium dyes change colour on reduction, which living cells bring about.

A further series concerns the target h5-HT6. Also noted: method as in PMID 27560283, PMID 29384656. The following applies: read-out: 5-HT6 Ki; cited from earlier work.

Several values for one entry are separate records, joined by “and”; a condition that tells them apart may be missing. Equal values may be shown once. Read-outs that look alike come from different tables or passages of the source. Marks after values point to notes of the source that are not given here.

T1 sequence (P10636 other isoform, or with tags, fused parts or gaps): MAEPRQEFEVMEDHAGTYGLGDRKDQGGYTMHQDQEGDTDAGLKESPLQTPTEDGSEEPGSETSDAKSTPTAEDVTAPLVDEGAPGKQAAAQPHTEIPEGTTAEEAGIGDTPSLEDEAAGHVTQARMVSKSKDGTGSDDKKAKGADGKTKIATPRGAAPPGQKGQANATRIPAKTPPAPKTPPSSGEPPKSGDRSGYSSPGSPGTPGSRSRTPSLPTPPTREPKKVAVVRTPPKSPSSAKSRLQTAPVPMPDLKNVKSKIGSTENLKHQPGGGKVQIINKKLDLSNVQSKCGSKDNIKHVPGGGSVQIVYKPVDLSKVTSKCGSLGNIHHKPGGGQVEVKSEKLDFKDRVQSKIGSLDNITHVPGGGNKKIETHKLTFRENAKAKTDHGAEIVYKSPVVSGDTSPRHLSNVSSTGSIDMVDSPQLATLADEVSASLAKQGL
T2 sequence (P05067 672-713): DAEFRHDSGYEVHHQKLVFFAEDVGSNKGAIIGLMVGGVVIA
T3 sequence (P56817 46-501): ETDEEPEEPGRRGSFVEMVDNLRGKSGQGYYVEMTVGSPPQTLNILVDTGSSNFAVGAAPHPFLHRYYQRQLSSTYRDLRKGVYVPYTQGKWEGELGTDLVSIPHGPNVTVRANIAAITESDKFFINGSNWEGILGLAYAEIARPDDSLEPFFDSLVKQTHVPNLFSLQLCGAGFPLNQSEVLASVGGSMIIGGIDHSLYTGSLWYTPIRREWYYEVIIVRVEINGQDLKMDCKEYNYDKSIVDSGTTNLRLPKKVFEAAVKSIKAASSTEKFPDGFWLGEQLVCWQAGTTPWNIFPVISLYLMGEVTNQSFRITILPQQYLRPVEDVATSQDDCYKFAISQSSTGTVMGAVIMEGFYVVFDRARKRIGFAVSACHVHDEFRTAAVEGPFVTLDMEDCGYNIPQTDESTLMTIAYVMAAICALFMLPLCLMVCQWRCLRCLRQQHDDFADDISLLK

Take `O=C(NCCCCCCCCNc1c2c(nc3cc(Cl)ccc13)CCCC2)c1ccc2nc(-c3ccc(Cl)cc3)c3c(c2c1)NCCC3` [DP-128]: the “In cellulo tau inhibition %” value at tau [1] was 68.7 ± 0.5^d %. Moreover, the “In cellulo Aβ42 inhibition %” value at Aβ42 [2] is reported as 77.5 ± 0.9^d %.

Usually IC50 stands for the point on the concentration scale where inhibition reaches its midpoint. What is called Ki is a measure of affinity in units of concentration, obtained from inhibition or displacement. As for `O=S(=O)(c1ccccc1)n1ccc2c(N3CCN(CCCCCCNc4c5c(nc6ccccc46)CCCC5)CC3)cccc21` [Compound 3], the IC50 in the series on eqBuChE was 0.008 µM; with hAChE, 0.013 µM; at human BACE1 it was 7.3 µM and 7.31 µM. Further, the CC50 with HepG2 cells came out at 6.4 µM; in the series with SH-SY5Y cells, 1 µM. For the same molecule, the “In cellulo tau inhibition %” value at tau [3] was 38% and 37.6 ± 2.4%. Further, the “In cellulo Aβ42 inhibition %” value on Aβ42 [4] was 30% and 29.7 ± 4.0%. Also, on h5-HT6, the Ki is 0.002 µM.

Consider `c1ccc(Cn2ccc3c(N4CCN(CCNc5c6c(nc7ccccc57)CCCC6)CC4)cccc32)cc1` [Compound 17], for which the half-inhibitory concentration (IC50) with eqBuChE was 0.005 µM; with hAChE, 0.026 µM; on human BACE1, 4 µM and 4.09 µM. For the same molecule, on tau [3], the “In cellulo tau inhibition %” value was 59% and 58.6 ± 4.5%. Also, at Aβ42 [4], the “In cellulo Aβ42 inhibition %” value was 56% and 55.7 ± 2.8%.
